From patent US20200405697A1, “Antitumor Agent” (Taiho Pharmaceutical Co., Ltd, priority 2017, published 2020) come the findings set out here.

The assay has as its target T1, human RNR (histidine tagged human M1 and human M2 proteins) (Homo sapiens, UniProt P23921).
T1 construct: made in house; host or cells: Escherichia coli
T1 sequence (P23921 1-792): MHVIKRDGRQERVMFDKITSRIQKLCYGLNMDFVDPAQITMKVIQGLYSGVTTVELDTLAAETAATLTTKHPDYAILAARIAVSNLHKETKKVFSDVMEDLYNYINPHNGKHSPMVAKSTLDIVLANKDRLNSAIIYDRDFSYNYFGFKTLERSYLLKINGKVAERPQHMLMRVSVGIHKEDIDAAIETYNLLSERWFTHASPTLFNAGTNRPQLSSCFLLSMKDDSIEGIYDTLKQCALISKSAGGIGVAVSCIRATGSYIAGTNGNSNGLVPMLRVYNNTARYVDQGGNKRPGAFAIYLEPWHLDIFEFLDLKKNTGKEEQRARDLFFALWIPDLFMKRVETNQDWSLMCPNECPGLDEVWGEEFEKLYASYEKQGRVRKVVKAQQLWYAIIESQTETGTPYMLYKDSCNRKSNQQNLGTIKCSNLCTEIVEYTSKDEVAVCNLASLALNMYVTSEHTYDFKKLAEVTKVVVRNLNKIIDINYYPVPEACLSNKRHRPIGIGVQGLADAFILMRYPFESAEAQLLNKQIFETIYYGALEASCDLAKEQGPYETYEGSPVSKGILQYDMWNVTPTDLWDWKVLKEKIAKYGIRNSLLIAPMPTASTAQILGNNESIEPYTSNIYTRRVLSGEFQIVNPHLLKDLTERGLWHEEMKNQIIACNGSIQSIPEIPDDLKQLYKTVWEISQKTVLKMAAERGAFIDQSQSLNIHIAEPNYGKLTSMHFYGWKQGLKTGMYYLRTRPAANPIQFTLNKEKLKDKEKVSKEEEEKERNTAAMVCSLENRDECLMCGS
In words: Human RNR inhibition effect (dCDP formation from CDP). Type of assay: biochemical. The following applies: 10 μM CDP, 37° C. for 30 minutes, read-out: RNR inhibitory activity IC50. An outline of the steps: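 His-tagged human M1 (isoform 1) and N-terminal 59-aa-truncated M2 (isoform 2), E. coli-expressed, Ni-purified, preincubated 20 min with compound (1% DMSO). Reaction with 10 μM CDP, 2 mM ATP, 0.24 mM NADPH, 6 mM DTT, 4 mM Mg acetate, 100 mM KCl, 50 mM HEPES pH 7.2, 30 min at 37° C. dCDP formed quantified by reverse-phase HPLC after heat stop.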
For the compound `COc1cc(C(N)=O)c(S(=O)(=O)N[C@H](c2n[nH]c(=O)o2)[C@H](C)c2c(F)ccc(C)c2C)cc1OC` [Example 260, 2-(N-((1S,2R)-2-(6-fluoro-2,3-dimethylphenyl)-1-(5-oxo-4,5-dihydro-1,3,4-oxadiazol-2-yl)propyl)sulfamoyl)-4,5-dimethoxybenzamide], the IC50 (commonly the concentration that inhibits the measured activity by half) is 360 nM.
Next, `Cc1ccc(F)c([C@@H](C)[C@H](NS(=O)(=O)c2ncc(Br)cc2C(=O)O)c2n[nH]c(=O)o2)c1C` [Example 214, 5-bromo-2-(N-((1S,2R)-2-(6-fluoro-2,3-dimethylphenyl)-1-(5-oxo-4,5-dihydro-1,3,4-oxadiazol-2-yl)propyl)sulfamoyl)nicotinic acid]: 990 nM; `Cc1ccc(F)c([C@@H](C)[C@H](NS(=O)(=O)c2ccc(F)c3c2OCCC3(C)O)c2n[nH]c(=O)o2)c1C` (single isomer, unassigned) [Example 224B]: 100 nM; `Cc1ccc(F)c([C@@H](C)[C@H](NS(=O)(=O)c2cccc3c2OC(C)(C)CC3=O)c2n[nH]c(=O)o2)c1C` [Example 97, N-((1S,2R)-2-(6-fluoro-2,3-dimethylphenyl)-1-(5-oxo-4,5-dihydro-1,3,4-oxadiazol-2-yl)propyl)-2,2-dimethyl-4-oxochroman-8-sulfonamide]: 240 nM.
Under `COc1ccc(-c2ccc(F)c([C@@H](C)[C@H](NS(=O)(=O)c3ccc(Cl)cc3OC)c3n[nH]c(=O)o3)c2C)cn1` [Example 314, 4-chloro-N-((1S,2R)-2-(6-fluoro-3-(6-methoxypyridin-3-yl)-2-methylphenyl)-1-(5-oxo-4,5-dihydro-1,3,4-oxadiazol-2-yl)propyl)-2-methoxybenzenesulfonamide] stands 260 nM; under `Cc1c(Cl)ccc(F)c1[C@@H](C)[C@H](NS(=O)(=O)c1ncc(Br)cc1C(N)=O)c1n[nH]c(=O)o1` [Example 254, 5-bromo-2-(N-((1S,2R)-2-(3-chloro-6-fluoro-2-methylphenyl)-1-(5-oxo-4,5-dihydro-1,3,4-oxadiazol-2-yl)propyl)sulfamoyl)nicotinamide], 70 nM.
Regarding `CC#CC(O)(C#CC)c1ccc(C(N)=O)c(S(=O)(=O)N[C@H](c2n[nH]c(=O)o2)[C@H](C)c2c(F)ccc(C)c2C)c1` [Example 199], the IC50 stood at 350 nM.
Next, `Cc1cccc(F)c1[C@H](C)[C@H](NS(=O)(=O)c1ccc(Cl)cc1C(N)=O)c1n[nH]c(=O)o1` [Example 23, 5-chloro-2-(N-((1S,2S)-2-(2-fluoro-6-methylphenyl)-1-(5-oxo-4,5-dihydro-1,3,4-oxadiazol-2-yl)propyl)sulfamoyl)benzainide]: 740 nM; `Cc1cc(S(=O)(=O)N[C@H](c2n[nH]c(=O)o2)[C@H](C)c2c(F)ccc(C)c2C)c(C(N)=O)cc1Cl` [Example 257, 5-chloro-2-(N-((1S,2R)-2-(6-fluoro-2,3-dimethylphenyl)-1-(5-oxo-4,5-dihydro-1,3,4-oxadiazol-2-yl)propyl)sulfamoyl)-4-methylbenzamide]: 100 nM; `COc1c(S(=O)(=O)N[C@H](c2n[nH]c(=O)o2)[C@H](C)c2cccc(C)c2C)ccc(Cl)c1C(C)O` (stereo partly drawn) [Example 203, 4-chloro-N-((1S,2R)-2-(2,3-dimethylphenyl)-1-(5-oxo-4,5-dihydro-1,3,4-oxadiazol-2-yl)propyl)-3-(1-hydroxyethyl)-2-methoxybenzenesulfonamide]: 180 nM.
Next, `Cc1ccc(F)c([C@@H](C)[C@H](NS(=O)(=O)c2cc(OCC(F)F)ccc2C(N)=O)c2n[nH]c(=O)o2)c1C` [Example 263, 4-(2,2-difluoroethoxy)-2-(N-((1S,2R)-2-(6-fluoro-2,3-dimethylphenyl)-1-(5-oxo-4,5-dihydro-1,3,4-oxadiazol-2-yl)propyl)sulfamoyl)benzamide]: 70 nM.
